Results from publication PMC3968004, “The Relevance of Testing the Efficacy of Anti-Angiogenesis Treatments on Cells Derived from Primary Tumors: A New Method for the Personalized Treatment of Renal Cell Carcinoma” (PLoS ONE, 2014).

Legend:
[1] = tested on: ERK, AKT and S6K activity in M cells; experiment: Immunoblotting of signaling pathways in M cells; assay type: cell-based, human
From the text: The following antibodies were used for Western blotting: anti-phospho ERK 1,2 (Sigma St Louis, MO, Reference M8159)), anti-phospho Akt, anti-Akt and anti-phospho S6 Kinase (Cell Signaling, Cambridge, UK, respectively References 4051, 9272, 9234) and anti-TFE3 anti ERKs (Santa Cruz Biotechnology, Santa Cruz, CA references sc 5958 (TFE3) and sc 93 (ERK)).
The effects of the different drugs on proliferation are correlated with the activity of intracellular signaling pathways (ERK and PI3 kinase/AKT/mTOR/S6 kinase (S6K)) in TF cells. […] The effects of the different drugs on signaling pathways have been tested in CC and M cells. […] Everolimus inhibited S6K with reactivation of AKT.
Supplementary file pone.0089449.s001.tif: Figure S1 In vitro sensitivity of the CC and M cells to the different drugs used to treat the patients; specific impact on downstream signaling pathways. A) The activity of major signaling pathways (ERK, PI3K/AKT/mTOR/S6K) in response to the different treatments (sunitinib (Su), sorafenib (So) and everolimus (Ev)) was determined by analysis of the presence of the phosphorylated forms of the kinases (pERK, pAKT, pS6K) in TF cells following a short-term treatment (two hours) by immunoblotting. Tubulin is shown as a loading control. […]

[2] = tested on: subcutaneous xenografts of TFE3 RCC cells; experiment: Tumor xenografts of TF cells in nude mice; assay type: in vivo, nude (nu/nu) female mice; details: TF cell xenografts; for percentage of mice with decrease (D) of the tumor size / percentage of mice with progression (P) of the tumor size / percentage of mice with stabilization (S) of the tumor size: daily gavage for fifteen days, sunitinib 40 mg/kg or sorafenib 80 mg/kg; for percentage of mice with stabilization (S) of the tumor size: stable = change not exceeding 1.5-fold; for percentage of tumor that does not progress: stable plus decreased tumors
Description: This study was carried out in strict accordance with the recommendations in the Guide for the Care and Use of Laboratory Animals of Centre National de la Recherche Scientifique (CNRS). All efforts were made to minimize suffering. Our experiments were approved by the “Comité national institutionnel d'éthique pour l'animal de laboratoire (CIEPAL)”. The project is registered under the reference: NCE/2013-97. The mice were housed under strict pathogen-free conditions and given sterile food and water. Animals were housed 5 per cage. 10^7 cells were injected subcutaneously into the flank of 5-week-old nude (nu/nu) female mice (Janvier, France) under sodium pentobarbital anesthesia. The tumor volume was determined by using a caliper (v = L×l^2×0.52 [18]). When the tumor reached 100 mm3, mice were treated by daily gavage for fifteen days with placebo (dextrose-water vehicle), sunitinib (40 mg/kg) or sorafenib (80 mg/kg). The ratio between the size of the tumor before and at the end of treatment for each tumor was measured.
The capacity of the drugs to reduce or stabilize tumor growth was tested on subcutaneous xenografts of TFE3 RCC cells in nude mice. The tumor growth was rather long (three months), a result compatible with previous results obtained on direct grafting of tumor fragments of RCC in mice. […] Without any treatment tumors progressed (40%) or remained stable (40%) (Fig. 5A). […] In the presence of sorafenib, the growth of most of the tumors was stable (45%). […] Another striking observation was the presence of a majority of cells with clear cytoplasm on HES staining for stable tumors or tumors that regressed during treatment (Fig. 5B). This cytological feature was the same in the initial tumor.
Figure 5 In vivo sensitivity of the TF cells to the different drugs used to treat the patient. A) 10^7 cells were subcutaneously injected into nude mice. When the tumor was visible mice were treated with sunitinib or sorafenib for 15 days. Tumor size was evaluated with a caliper. The percentage of mice with progression (P), decrease (D) or stabilization (S) of the tumor size is indicated. B) The general histological aspect of a progressing tumor (P) or a regressing (D) tumor is shown for the different situations (Control, sunitinib, sorafenib). The percentage of clear zones in stable or responsive tumors was evaluated using the Leica software SlidePath Gateway. Statistical analysis was performed using a student's t test (* p<0.05). TEXT PRINTED IN THE PICTURE: (A) Sunitinib: P: 33 %; S: 17 %; D: 50 % | (A) Sorafenib: P: 22 %; S: 45 %; D: 33 %

| Structure (SMILES) | S6K activity [1] | number of clear zones in tumors (HES staining) ([2]; compared with control) | percentage of mice with decrease (D) of the tumor size [2] | percentage of mice with progression (P) of the tumor size [2] | percentage of mice with stabilization (S) of the tumor size [2] | percentage of tumor that does not progress [2] |
| --- | --- | --- | --- | --- | --- | --- |
| CO[C@H]1C[C@@H]2CC[C@@H](C)[C@@](O)(O2)C(=O)C(=O)N2CCCC[C@H]2C(=O)O[C@H]([C@H](C)C[C@@H]2CC[C@@H](OCCO)[C@H](OC)C2)CC(=O)[C@H](C)/C=C(\C)[C@@H](O)[C@@H](OC)C(=O)[C@H](C)C[C@H](C)/C=C/C=C/C=C/1C [everolimus] | strong inhibition | – | – | – | – | – |
| CNC(=O)c1cc(Oc2ccc(NC(=O)Nc3ccc(Cl)c(C(F)(F)F)c3)cc2)ccn1 [sorafenib] | – | significant increase | 33% | 22% | 45% | 78% |
| CCN(CC)CCNC(=O)c1c(C)[nH]c(/C=C2\C(=O)Nc3ccc(F)cc32)c1C [sunitinib] | – | – | 50% | 33% | 17% | 67% |
